From PMC9503608, “An Insight into Symmetrical Cyanine Dyes as Promising Selective Antiproliferative Agents in Caco-2 Colorectal Cancer Cells” (Molecules, 2022)

How the values were obtained:
Assay type in all cases: cell-based, human
[1] = system: NHDF cell line; experiment: Photocytotoxicity evaluation (MTT after white LED light irradiation); settings: 30 min white LED light versus dark
Protocol: The photocytotoxicity evaluation was performed on the NHDF cell line similar to the above MTT cell viability assay. In contrast to 72 h continuous incubation in the dark with test solutions, cells were subjected to 30 min of constant irradiation with white light from an RGBW LED projector (220–240 V and 30 W, Luxtar) after 48 h of incubation. This light source emits radiation at wavelengths suitable for the excitation of evaluated dye (see support information) with a total fluence rate of 1.196 W/sr·m^2 (measured with a pr-650 spectrascan spectroradiometer, Photo Research Inc., Chatsworth, CA, USA). During the photocytotoxicity treatment, the device was placed over the culture cell plates supported by a closed system at a distance of 12 cm. The maximum temperature of the exposure of the cells was 37 °C. After this irradiation, cells were incubated for an additional 24 h, making up a total of 72 h incubation and exposure to the test solutions. To check the validity of the light source, the squaraine dye 4, which was previously described with relevant photodynamic activity, was used as a positive control. A photocytotoxicity assay was performed in quadruplicate, and at least two independent assays were achieved.

[2] = system: Caco-2 cells; experiment: Apoptosis by propidium iodide staining and flow cytometry
Protocol: The apoptosis occurrence and influence of the dye 12 on the cell cycle were evaluated using propidium iodide (PI) staining and flow cytometry, as described by Riccardi and Nicolleti. After the near confluency of the culture, trypsinisation, and counting, Caco-2 cells were seeded (2 mL, 3 × 10^4 cells/mL) in 6-well plates. After 48 h of adherence, the cells were treated with the test solutions (3 mL and 5 mL for negative control) and incubated for 72 h. Untreated cells were used as the negative control, and sorbitol and 5-FU [56] were used as positive controls for the apoptosis and cell cycle distribution studies, respectively. After incubation, the supernatant was collected and the cells were washed with PBS and combined with the cells harvested using the trypsin treatment. This cell suspension was maintained on ice and centrifugated, and then the pellet was resuspended in 0.5 mL of PBS. The cells were fixed by adding 4.5 mL of 70% ethanol cooled at −20 °C and were stored at the same temperature. For the cytometry analysis, PBS was added to the fixed cells before centrifugation, and then the ethanolic supernatant was removed. The pellet was resuspended in 0.5 mL of PBS and 0.5 mL of DNA extraction (192 mL of 0.2 M sodium phosphate and 8 mL of […], pH 7.8) was added. After incubation for 5 min, the cells were centrifuged, the supernatant was removed, and the pellet resuspended in 0.3 mL of staining solution (20 µg/mL of PI and 0.2 mg/mL of DNase-free RNase in PBS). Using a FACSCalibur flow cytometer and the 488 nm laser line, a minimum of 20,000 events were recorded. Acquisition and apoptosis analysis was performed using BD CellQuestTM Pro 4.0.2 Software. Cell cycle analysis was performed with ModFit LT 5.0.9 software. To exclude debris and necrotic cells, events with a lower diameter (forward scatter; FCS) and reduced PI fluorescence (FL3) than the hypodiploid apoptotic cells were eliminated. Two independent experiments were performed.

[3] = system: PC-3 prostate adenocarcinoma cell line; experiment: MTT cell viability assay, PC-3
Protocol: (§1) Caco-2, MCF-7, PC-3, and NHDF cell lines were obtained from the American Type Culture Collection (ATCC) and maintained in 75 cm^2 culture flasks in a humidified atmosphere at 37 °C with 5% carbon dioxide using a LEEC Culture Safe Precision CO2 Incubator. The culture media was renewed every two to three days. The NHDF cell line was cultured in Roswell Park Memorial Institute (RPMI) medium supplemented with 10% of inactivated fetal bovine serum (FBS), 2 mM of L-glutamine, 10 mM of 4-(2-hydroxyethyl)-1-piperazineethanesulfonic acid (HEPES), 1 mM of sodium pyruvate, and 1% of antibiotic/antimycotic mixture (Ab; 10,000 U/mL of penicillin G, […] of streptomycin, and 25 µg/mL of amphotericin B). The PC-3 cell line was also cultured in RPMI 1640 medium supplemented with 10% inactivated FBS and 1% of an antibiotic mixture (Sp; 10,000 U/mL of penicillin G and […] of streptomycin). The Caco-2 and MCF-7 cell lines were grown in Dulbecco’s Modified Eagle Medium (DMEM). Caco-2 was supplemented with 20% of inactivated FBS and 1% of Sp. On the other hand, the MCF-7 medium was complemented with 10% of inactivated FBS and 1% of Ab. All manipulations were performed in a Labculture Class II A2 Biological Safety Cabinet.
(§2) After the near confluency of cultures, cells were detached with a solution of 0.125 g/L trypsin and 0.02 g/L ethylenediaminetetracetic acid (EDTA), counted using the trypan blue method, resuspended, and seeded in 96-well culture plates (100 µL, 2 × 10^4 cells/mL). Following 48 h of adherence, cells were treated with the test solutions and incubated for 72 h. This incubation, as well as the solution manipulations, were performed in an environment protected from light. After the incubation, the medium was replaced with a fresh incomplete culture medium (without FBS and Ab or Sp) and MTT solution (5 mg/mL in phosphate buffer saline (PBS)). After additional incubation for 4 h, the MTT medium was removed, formazan crystals were dissolved in DMSO, and the optical density of each well was measured at 570 nm using a microplate spectrophotometer Bio-Rad xMark. Untreated cells were used as a negative control and 5-FU as the positive control. The results were expressed as the relative cell proliferation relative to the negative control cells. […] To determine the IC50 values, Caco-2, MCF-7, PC-3, and NHDF cells were exposed to increasing concentrations between 0.001 and 100 μM.

[4] = system: Caco-2 cells; experiment: Morphological analysis by inverted microscopy; settings: 72 h, 20 or 40× magnification, versus untreated cells
Protocol: After the near confluency of the culture, trypsinisation, and counting, Caco-2 cells were seeded (3 mL; 3 × 10^4 cells/mL) in 35 mm cell culture dishes with treatment for the tissue culture. Following 48 h of adherence, the cells were treated with the test solutions and incubated for 72 h in an environment protected from light. At every 24 h, cellular morphology was verified in an Olympus CKX41 SF inverted microscope with a 10, 20, or 40× objective, and the analysis was based on comparing the cells with and without treatment. Cell imaging was captured using a DC6V Olympus digital camera coupled to the microscope.

[5] = MTT cell viability assay, Caco-2; settings: human, Caco-2, Caco-2 versus NHDF, 72 h; read-out: SI Caco-2 (selectivity index, cancer versus NHDF)
Protocol: as §1, §2

[6] = system: Caco-2 colorectal adenocarcinoma cell line; experiment: MTT cell viability assay, Caco-2; settings: Homo sapiens, Caco-2, 72 h
Protocol: as §1, §2

- IC50 ([3]; Homo sapiens, 72 h of incubation, MTT, protected from light): 4530 nM
- morphological changes of Caco-2 cells ([4]; 1 µM): no visible differences
- morphological changes of Caco-2 cells ([4]; 10 µM): evident contraction
- IC50 ([6]; 72 h of incubation, MTT, protected from light): 670 nM
Compound: CN1C(=Cc2oc3ccccc3[n+]2C)Oc2ccccc21.Cc1ccc(S(=O)(=O)[O-])cc1 [Dye 12, 3-Methyl-2-((3-methylbenzo[d]oxazol-2(3H)-ylidene)methyl)benzo[d]oxazol-3-ium 4-methylbenzenesulfonate]
- photocytotoxicity (irradiation influence on cytotoxicity) [1]: total absence of photocytotoxicity
- increase in apoptotic cells relative to untreated cells ([2]; Caco-2, 10 µM, 72 h): 2%
- apoptosis induced (percent of cells) ([2]; Caco-2, dye 12 10 µM 72 h, sorbitol 600 mM 24 h): about 3%
- viability at 10 µM ([3]; Homo sapiens, 72 h, single concentration of 10 µM, 72 h, mean ± SD, read-out: cell viability percentage in relation with control, PC-3): 9.33 ± 4.28%
- SI PC-3 (selectivity index, cancer versus NHDF) ([3]; PC-3 versus NHDF, 72 h): 3.1
- selectivity ratio at 72 h [5]: 20.9
- viability at 10 µM ([6]; single concentration of 10 µM, 72 h, mean ± SD, read-out: cell viability percentage in relation with control, Caco-2): 10 ± 0.93%
